System: plants
Assay: Test D pre-emergence, other plants of Tables D1 and D3
Format: in vivo
Details: pre-emergence, 100=total damage, 0=no damage
Method in brief: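 Damage was rated visually from 0 (none) to 100 (total), at 20 DAA for pre-emergence and 15 d for post-emergence. Plants grew from safener-treated seed in a glasshouse at 24/18° C. or 20/16° C. day/night, 65% humidity, watered twice daily.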

COc1c(F)cccc1NC(=O)C1C(=O)N(C)CC1c1cc(C(F)(F)F)n(C)n1 (racemic) [Compound 18]
30: damage to plant, ALOMY (rate 250, 20 DAA) | damage to plant, AVEFA (rate 250, 20 DAA) | damage to plant, BROTE (rate 250, 20 DAA) | damage to plant, GALAP (rate 250, 20 DAA) | damage to plant, CHEAL (rate 500, 20 DAA)
0: damage to plant, ALOMY (rate 15, 20 DAA) | damage to plant, AVEFA (rate 15, 20 DAA) | damage to plant, BEAVA (rate 15, 20 DAA) | damage to plant, BROTE (rate 15, 20 DAA) | damage to plant, BRSNN (rate 15, 20 DAA) | damage to plant, CHEAL (rate 15, 20 DAA) | damage to plant, GALAP (rate 15, 20 DAA) | damage to plant, HORVW (rate 15, 20 DAA) | damage to plant, KCHSC (rate 15, 20 DAA) | damage to plant, LOLPE (rate 15, 20 DAA) | damage to plant, POAAN (rate 15, 20 DAA) | damage to plant, POLCO (rate 15, 20 DAA) | damage to plant, SINAR (rate 15, 20 DAA) | damage to plant, STEME (rate 15, 20 DAA) | damage to plant, VERPE (rate 15, 20 DAA) | damage to plant, ALOMY (rate 30, 20 DAA) | damage to plant, AVEFA (rate 30, 20 DAA) | damage to plant, BEAVA (rate 30, 20 DAA) | damage to plant, BROTE (rate 30, 20 DAA) | damage to plant, BRSNN (rate 30, 20 DAA) | damage to plant, CHEAL (rate 30, 20 DAA) | damage to plant, GALAP (rate 30, 20 DAA) | damage to plant, HORVW (rate 30, 20 DAA) | damage to plant, KCHSC (rate 30, 20 DAA) | damage to plant, LOLPE (rate 30, 20 DAA) | damage to plant, POAAN (rate 30, 20 DAA) | damage to plant, POLCO (rate 30, 20 DAA) | damage to plant, SINAR (rate 30, 20 DAA) | damage to plant, STEME (rate 30, 20 DAA) | damage to plant, VERPE (rate 30, 20 DAA) | damage to plant, ALOMY (rate 60, 20 DAA) | damage to plant, AVEFA (rate 60, 20 DAA) | damage to plant, BEAVA (rate 60, 20 DAA) | damage to plant, BROTE (rate 60, 20 DAA) | damage to plant, BRSNN (rate 60, 20 DAA) | damage to plant, CHEAL (rate 60, 20 DAA) | damage to plant, GALAP (rate 60, 20 DAA) | damage to plant, HORVW (rate 60, 20 DAA) | damage to plant, KCHSC (rate 60, 20 DAA) | damage to plant, POLCO (rate 60, 20 DAA) | damage to plant, SINAR (rate 60, 20 DAA) | damage to plant, STEME (rate 60, 20 DAA) | damage to plant, ALOMY (rate 130, 20 DAA) | damage to plant, AVEFA (rate 130, 20 DAA) | damage to plant, BEAVA (rate 130, 20 DAA) | damage to plant, BRSNN (rate 130, 20 DAA) | damage to plant, HORVW (rate 130, 20 DAA) | damage to plant, KCHSC (rate 130, 20 DAA) | damage to plant, POLCO (rate 130, 20 DAA) | damage to plant, SINAR (rate 130, 20 DAA) | damage to plant, BEAVA (rate 250, 20 DAA) | damage to plant, HORVW (rate 250, 20 DAA) | damage to plant, KCHSC (rate 250, 20 DAA) | damage to plant, POLCO (rate 250, 20 DAA) | damage to plant, SINAR (rate 250, 20 DAA) | damage to plant, BEAVA (rate 500, 20 DAA) | damage to plant, KCHSC (rate 500, 20 DAA) | damage to plant, POLCO (rate 500, 20 DAA)
20: damage to plant, CHEAL (rate 130, 20 DAA) | damage to plant, LOLPE (rate 130, 20 DAA) | damage to plant, VERPE (rate 130, 20 DAA) | damage to plant, CHEAL (rate 250, 20 DAA) | damage to plant, STEME (rate 250, 20 DAA) | damage to plant, BRSNN (rate 500, 20 DAA) | damage to plant, GALAP (rate 500, 20 DAA)
40: damage to plant, POAAN (rate 60, 20 DAA) | damage to plant, AVEFA (rate 500, 20 DAA) | damage to plant, BROTE (rate 500, 20 DAA) | damage to plant, HORVW (rate 500, 20 DAA)
50: damage to plant, LOLPE (rate 250, 20 DAA) | damage to plant, VERPE (rate 500, 20 DAA)
60: damage to plant, POAAN (rate 130, 20 DAA) | damage to plant, VERPE (rate 250, 20 DAA) | damage to plant, ALOMY (rate 500, 20 DAA)
70: damage to plant, POAAN (rate 250, 20 DAA) | damage to plant, LOLPE (rate 500, 20 DAA)
10: damage to plant, LOLPE (rate 60, 20 DAA) | damage to plant, VERPE (rate 60, 20 DAA) | damage to plant, BROTE (rate 130, 20 DAA) | damage to plant, GALAP (rate 130, 20 DAA) | damage to plant, STEME (rate 130, 20 DAA) | damage to plant, BRSNN (rate 250, 20 DAA) | damage to plant, SINAR (rate 500, 20 DAA) | damage to plant, STEME (rate 500, 20 DAA)
90: damage to plant, POAAN (rate 500, 20 DAA)

Source: patent publication US20220281848A1, “PYRAZOLE-SUBSTITUTED PYRROLIDINONES AS HERBICIDES” (FMC Corporation, priority 2019, published 2022)
